US20100137344A1, “INDUCTION OF ANALGESIA IN NEUROPATHIC PAIN” (University Court of the University of Edinburgh, priority 2006, published 2010)

Tests used:
Type in all cases: in vivo, rat
[1] = tested on: rats with chronic constriction injury (CCI) to sciatic nerve; assay: Intrathecal application in CCI rats, behavioural reflex testing (PWL, PWT); conditions: for effect on contralateral responses / reversal of mechanical reflex sensitisation ipsilateral to CCI / reversal of thermal reflex sensitisation ipsilateral to CCI: 2R,4R-APDC 15 nmol, ACPT-III and AP-4 150 nmol each; for reversal of mechanical reflex sensitisation ipsilateral to CCI / reversal of thermal reflex sensitisation ipsilateral to CCI: 15-30 min post-injection
Experimental: (§1) Pain models were generated under halothane anaesthesia (Zeneca, Cheshire, UK). For the chronic constriction injury (CCI) model of neuropathic pain, four ligatures were tied loosely to constrict the sciatic nerve at mid-thigh level (as described previously^[39]). An inflammatory pain model was generated by injecting 100 μl of Complete Freund's Adjuvant (CFA, Sigma-Aldrich Ltd) into the ventral surface of the right hindpaw^[39]. A model of peripheral demyelination-induced pain was produced by focal application of lysolecithin to the sciatic nerve^[40]. Peak behavioural sensitisation was observed post-surgically between days 10-16 for CCI, 1-3 for CFA, and 7-14 for lysolecithin, when pharmacological and electrophysiological experiments and tissue removal were conducted.
(§2) Thermal sensitivity was assessed by measuring paw withdrawal latency (PWL, s) in response to a noxious thermal stimulus (Hargreaves' thermal stimulator, Linton Instrumentation, Diss, UK) directed to the hindpaw mid-plantar glabrous surface. Mechanical sensitivity was recorded as the paw withdrawal threshold (PWT, mN/mm^2) to calibrated von Frey filaments (Stoelting, Ill., US), as previously described^[39]. Sensitivity to noxious cold was assessed by placing animals in a waterbath with an aluminium floor containing 1 cm deep 4° C. water and counting the time the paw was held suspended over a 20 s period.
The following drugs were applied intrathecally in a 50 μl volume of saline-based vehicle at 37° C.: icilin (2.5-200 μM in saline with 0.2% dimethylformamide, DMF), LY 341495 (100 μM in saline), UBP 1112 (200 μM in saline), 2R,4R-APDC ((2R, 4R)-4-aminopyrrolidine-2,4-dicarboxylate), 300 μM in saline), ACPT-III ((1R,3R,4S)-1-aminocyclopentane-1,3,4-tricarboxylic acid), 3 mM in saline), AP-4, ((L-(1)-2-amino-4-phosphonobutyric acid), 3 mM in saline), naloxone (0.5 mM in saline), NMDA (75 μM in saline) and ACPC (1-aminocyclopropanecarboxylic acid, 15 μM in saline) (Tocris Cookson, Bristol, UK), (−)-menthol (1R,2S,5R-(−)-menthol, 4 mM in saline), cinnamaldehyde (1.5 mM in saline) and Ruthenium Red (5 μM in saline) (Sigma-Aldrich Co. Ltd, UK) and allicin (0.5 mM in saline with 0.5% DMF) and diallyl disulphide (DADS, 1 mM in saline with 0.5% DMF) (LKT Laboratories Inc., St Paul, Minn., USA). Drugs were injected into the L5/6 intrathecal space under brief halothane anaesthesia, using a 25-gauge needle microsyringe (BD Biosciences, Oxford, UK), as described previously^[39] in animals that were at peak levels of behavioural sensitisation. Behavioural reflex testing commenced 15 min following injection to allow recovery from anaesthesia^[40,41,42] and continued every 5 min thereafter until readings returned to baseline levels (n=6 in each case). We, and others^[40,41,42] find complete recovery from anaesthetic by 15 minutes. All appropriate controls were carried out to eliminate the possibility of effects due to vehicle or to injection procedure.
The TRPM8 channel activators, icilin and (−)-menthol were tested in CCI and naïve animals. The effects of icilin were additionally assessed in animals with CFA-induced inflammation or with lysolecithin-induced demyelination. Icilin was also co-administered with the μ-opioid receptor antagonist naloxone, the Group II metabotropic glutamate receptor (mGluR) antagonist, LY 341495, or the Group III mGluR antagonist, UBP 1112. The effects of these antagonists alone as well as effects of the Group II mGluR agonist, 2R,4R-APDC and the Group III mGluR agonists, ACPT-III and AP-4, were assessed in CCI animals. The TRPA1 channel activator, cinnamaldehyde, alone and with icilin, was tested in CCI animals and in naïve animals. Further TRPA1 channel activators, allicin and diallyl disulphide were assessed in naïve animals. Both icilin and cinnamaldehyde effects in CCI animals were also investigated in the additional presence of Ruthenium Red.

[2] = tested on: saphenous nerve afferents; assay: Saphenous nerve afferent recordings after topical application to receptive field; conditions: resiniferatoxin 1 mM; for firing frequency after drug / increase in firing frequency: topical icilin 200 μM
Excerpt: (§3) Antisense and mis-sense oligonucleotides were 22-mers with phosphorothioate bonds at the last two positions at 5′ and 3′ ends (MWG Biotech, Ebersberg, Germany). Antisense extended from base −10 to base +12 relative to the start of the open reading frame for the rat TRPM8 gene: 5′ C*T*CGAAGGACATCTTGCCGT*G*G 3′, where * represents phosphorothioate linkages. Mis-sense was designed with 4 inversions of C/G or A/T as appropriate at residues 3, 11, 14 and 22, preserving overall G/C content. BLAST searches of both oligonucleotides indicated no significant complementarity to any known gene sequence. 14-day or 7-day osmotic minipumps (for CCI experiments or naïve electrophysiology experiments respectively—Alzet Minipump, models 2002, 2001; Charles River, UK) containing oligonucleotides (1 μg/μl in sterile saline) were connected to canulae inserted under the dura of the spinal cord to level L5/6 and produced a predicted infusion rate of 0.5 μl/h. CCI surgery was performed at the same time as minipump implantation. Sensory tests were carried out to assess the time-course of behavioural sensitisation in animals which had also undergone a CCI injury. Icilin was applied topically rather than intrathecally so as to prevent any interference with the infusion canula. Peripheral nerve recordings and tissue harvesting were carried out after an interval of 4-5 days to allow time for protein knockdown.
Peripheral: Recordings of saphenous (sensory) nerve were made in naïve animals (n=7) to assess the effects of topical icilin on primary afferents. In addition, recordings were carried out on animals which had undergone TRPM8 antisense or mis-sense treatment beginning 4-5 days previously. Rats were anaesthetised (with 0.6 ml 25% urethane/100 g, i.p.) and the saphenous nerve was exposed and dissected from its associated vein and artery. Further dissection under liquid paraffin enabled identification of afferent preparations comprising a small number of fibres. The conduction velocity of single identified afferent fibres was determined using bipolar electrodes and the peripheral stimulus technique^[43]. Following isolation of preparations, icilin (200 μM in water with 0.2% DMF), (−)-menthol (4 mM in 25% ethanol) resiniferatoxin (1 mM in ethanol) or vehicle alone were applied to the hindlimb receptive fields and neuronal responses recorded using the Chart programme (version 3.6). Central: Recordings of spinal dorsal horn neurons were made in CCI animals, as described previously^[39]. Following halothane induction, the jugular vein and trachea were canulated and intravenous anaesthetic delivered: α-chloralose ([…], Fisher) and urethane ([…], Sigma), with small supplementary doses of α-chloralose as required throughout the experiment. Core body temperature was maintained at 37-38° C. by means of a thermostatically controlled heated blanket. The animal was placed in a stereotaxic frame, and the thoracolumbar spinal column was supported using three pairs of swan-necked clamps. A laminectomy was performed at L2-L5, and agar (2% in saline at 37° C.) was delivered over exposed cord to increase mechanical stability. Above the recording region the agar and spinal cord dura were removed and liquid paraffin poured into the pool. Extracellular recordings were made from single multireceptive neurons in laminae I-IV through the centre barrel of a seven-barrelled glass microelectrode filled with 4M NaCl (tip-diameter […], DC resistance 5-8 MΩ). The receptive fields of hair-follicle innervated neurons on the distal hindlimb were identified by an innocuous brush stimulus^[39]. Icilin (200 μM in water with 0.2% DMF) was applied peripherally to the receptive field of individual recorded neurons, and the effect on neuronal response to a rotating brush was recorded and analysed using Spike2 programme (Version 3.2, CED). […]

[3] = tested on: rats with chronic constriction injury (CCI) to sciatic nerve; assay: Topical application to paws of CCI rats, behavioural reflex testing (thermal PWL, mechanical PWT); conditions: for reversal of sensitised responses: topical, (−)-menthol 4 mM, isomenthol and (+)-menthol 8 mM and 16 mM; for analgesia, thermal hyperalgesia (Hargreaves' test): 30 μM topical, CCI model
Experimental: as §1, §2
Icilin was applied at concentrations of 2.5-500 μM (in water with 0.2% DMF), by placing CCI or naïve rats unrestrained for 5 min in a 1 cm deep waterbath (sufficient to cover paws), which was thermostatically controlled to a temperature of 30° C., or by very lightly anaesthetising rats and immersing hindpaws in small tubes containing 5 ml icilin (500 μM-5 mM, with a vehicle of 45% dimethylformamide in 0.2% aqueous Tween 80) for 5 min, followed by sensory testing for 60-80 mins. The effects of (−)-menthol and its stereoisomers isomenthol (1S,2R,5R-menthol,) and (+)-menthol (1S,2R,5S(+)-menthol) (4-16 mM in 80% ethanol) were also assessed. Relevant vehicles were always assessed in similar experiments. As a contrast, the effect of cinnamaldehyde (1.5 mM in water) and the effect of cinnamaldehyde with additional icilin (80 μM in water with 0.2% DMF) were assessed in naïve animals. The effects of icilin (80 μM) were further assessed in CCI animals that had undergone antisense and mis-sense treatment for knockdown of TRPM8 or immediately following intrathecal injection of either LY 341495 or UBP 1112. […] The effects of brief paw immersion at different temperatures (10-22° C. for 5 min) on CCI rats were assessed by mechanical testing. The effects of intrathecal LY 341495 or UBP 1112 on the reversal of ipsilateral sensitisation in CCI following a 16° C. cool challenge for 5 min were measured. Reflex testing commenced 5 minutes following challenge, unless animals had been anaesthetised, in which case 15 minutes was allowed for recovery. Six replicate animals were tested in all pharmacological experiments.
as §3, with “CCI surgery was performed at the same time as minipump implantation. Sensory tests were carried out to assess the time-course of behavioural sensitisation in animals which had also undergone a CCI injury. Icilin was applied topically rather than intrathecally so as to prevent any interference with the infusion canula. Peripheral nerve recordings and tissue harvesting were carried out after an interval of 4-5 days to allow time for protein knockdown.” left out

[4] = mis-sense-treated animals, (−)-menthol 4 mM

N[C@]1(C(=O)O)C[C@H](C(=O)O)[C@H](C(=O)O)C1 [ACPT-III, (1R,3R,4S)-1-aminocyclopentane-1,3,4-tricarboxylic acid]
effect on contralateral responses ([1]; intrathecal): no effects contralaterally | reversal of mechanical reflex sensitisation ipsilateral to CCI ([1]; intrathecal): 65.7±11.4% | reversal of thermal reflex sensitisation ipsilateral to CCI ([1]; intrathecal): 83.6±6.3%

C=C(C)[C@]12C[C@@H](C)[C@@]34O[C@](Cc5ccccc5)(O[C@@H]1[C@@H]3C=C(COC(=O)Cc1ccc(O)c(OC)c1)C[C@]1(O)C(=O)C(C)=C[C@@H]41)O2 [resiniferatoxin]
afferents activated out of 28 recorded ([2]; antisense-treated animals): 16 | firing frequency after drug ([2]; antisense-treated animals, (−)-menthol 4 mM): 25.9±1.8 Hz | increase in firing frequency ([2]; antisense-treated animals): 6 fold | firing frequency after drug [2, 4]: 24.8±3.1 Hz | increase in firing frequency [2, 4]: 5 fold

C=CCN1CC[C@]23c4c5ccc(O)c4O[C@H]2C(=O)CC[C@@]3(O)[C@H]1C5 [naloxone]
effect on icilin analgesia ([1]; naloxone 25 nmol intrathecal co-administration with icilin): had no effect

N[C@@H](CCP(=O)(O)O)C(=O)O [AP-4, L-(1)-2-amino-4-phosphonobutyric acid]
effect on contralateral responses ([1]; intrathecal): no effects contralaterally | reversal of mechanical reflex sensitisation ipsilateral to CCI ([1]; intrathecal): 60.7±8.0% | reversal of thermal reflex sensitisation ipsilateral to CCI ([1]; intrathecal): 60.8±6.7%

CC(C)[C@H]1CC[C@@H](C)C[C@@H]1O [isomenthol, 1S,2R,5R-menthol]
reversal of sensitised responses [3]: produced reversal of sensitised responses

COc1ccc(NC(=O)C2CC(C)CCC2C(C)C)cc1 (stereo not drawn) [WS-12, 2-isopropyl-5-methyl-cyclohexanecarboxylic acid (4-methoxyphenyl)amide]
analgesia, thermal hyperalgesia (Hargreaves' test) [3]: causes analgesia

N.N.N.N.N.N.N.N.N.N.N.N.N.N.[Cl-].[Cl-].[Cl-].[Cl-].[Cl-].[Cl-].[O-2].[O-2].[Ru+3].[Ru+3].[Ru+4] [Ruthenium Red]
effect on analgesic effect of intrathecally-injected icilin ([1]; Ruthenium Red 0.25 nmol with icilin 10 nmol): unaffected | effect on sensitising effects of cinnamaldehyde ([1]; co-injection of Ruthenium Red 0.25 nmol with cinnamaldehyde 75 nmol, intrathecal): prevented

CC1CC[C@H](C(C)C)[C@@H](O)C1 (single isomer, unassigned; (+)) [(+)-menthol]
reversal of sensitised responses [3]: produced reversal of sensitised responses

N[C@@]1(C(=O)O)CN[C@@H](C(=O)O)C1 [2R,4R-APDC, (2R, 4R)-4-aminopyrrolidine-2,4-dicarboxylate]
effect on contralateral responses ([1]; intrathecal): no effect on contralateral responses | reversal of mechanical reflex sensitisation ipsilateral to CCI ([1]; intrathecal): 56.0±10.9% | reversal of thermal reflex sensitisation ipsilateral to CCI ([1]; intrathecal): 72.1±6.4%

COc1ccccc1N1CC=C(c2cccc([N+](=O)[O-])c2)NC1=O [methoxy-icilin, 1-(2′-methoxyphenyl)-4-(3″-nitrophenyl)-1,2,3,6-tetrahydropyrimidin-2-one]
analgesia, thermal hyperalgesia (Hargreaves' test) [3]: causes analgesia
